# Assay results taken from patent publication US20070280915A1, “Combination Therapies Employing A Composition Comprising A Hmg Coa Reductase Inhibitor And A Vitamin B6 Related Compound” (priority 2003, published 2007).
# Read-outs that look alike come from different tables or passages of the source.
# Legend:
# CYP3A4 = CYP3A4 (Homo sapiens, UniProt P08684); test: CYP3A4 inhibition assay (substrates BFC and BQ)
# Text: (§1) The CYP inhibition assays used microsomes (Supersomes®, Gentest Corp., Woburn, Mass.) prepared from insect cells, each expressing an individual CYP subtype (CYP1A2, CYP2A6, CYP2B6, CYP2C8, CYP2C9, CYP2C19, CYP2D6, CYP2E1 or CYP3A4) expressed from the corresponding human CYP cDNA using a baculovirus expression vector. The microsomes also incorporated supplemental cDNA-expressed human reductase and/or cytochrome b5, as these enzymes stimulate the activity of the CYPs, allowing for a reduction in the amount of enzyme required per reaction (Gentest Corp.). The assays monitored, via fluorescence detection, the formation of a fluorescent metabolite following incubation of the microsomes with a specific CYP substrate. […]
# (§2) Eight inhibitor and test compound concentrations were tested using 3-fold serial dilutions. […] The amount of metabolic product formed was quantified by fluorescence detection in a fluorescence plate reader utilizing excitation and emission filters that had been optimized for the detection of each metabolite.
# (§3) Data Analysis—The mean of the duplicate fluorescent signals in the presence and absence (vehicle control) of each compound was calculated and corrected for the background noise. […]
# CYP2D6 = CYP2D6 (Homo sapiens, UniProt P10635); test: CYP2D6 inhibition assay (substrate AMMC); conditions: 0.0169 to […] tested, na = concentration-dependent inhibition not observed
# Text: as §1, §2, §3
# CYP2C19 = CYP2C19 (Homo sapiens, UniProt P33261); test: CYP2C19 inhibition assay (substrate CEC); conditions: read-out: Pyridoxal 5′-phosphate IC50, 0.0169 to […] tested, listed as pyridoxal 5′-phosphate
# Text: as §1, §2, §3
# CYP2B6 = molecular target: T1, CYP2B6 (Homo sapiens, UniProt P20813); test: CYP2B6 inhibition assay (substrate EFC); conditions: 0.0169 to […] tested, na = concentration-dependent inhibition not observed
# T1 sequence (P20813 1-491): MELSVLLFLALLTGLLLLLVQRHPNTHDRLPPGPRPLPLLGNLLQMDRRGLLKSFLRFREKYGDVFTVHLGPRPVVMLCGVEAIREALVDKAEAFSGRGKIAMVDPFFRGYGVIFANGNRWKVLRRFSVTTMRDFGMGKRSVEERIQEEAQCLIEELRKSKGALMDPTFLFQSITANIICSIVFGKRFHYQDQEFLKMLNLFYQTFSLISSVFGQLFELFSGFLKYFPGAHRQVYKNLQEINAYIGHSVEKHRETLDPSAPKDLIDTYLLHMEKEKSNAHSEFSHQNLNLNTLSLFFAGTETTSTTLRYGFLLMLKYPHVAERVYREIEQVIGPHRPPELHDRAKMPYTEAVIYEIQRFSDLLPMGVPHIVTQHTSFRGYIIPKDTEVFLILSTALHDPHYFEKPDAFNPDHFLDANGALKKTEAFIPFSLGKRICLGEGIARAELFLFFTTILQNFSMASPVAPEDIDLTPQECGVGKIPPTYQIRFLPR
# Text: The CYP inhibition assays used microsomes (Supersomes®, Gentest Corp., Woburn, Mass.) prepared from insect cells, each expressing an individual CYP subtype (CYP1A2, CYP2A6, CYP2B6, CYP2C8, CYP2C9, CYP2C19, CYP2D6, CYP2E1 or CYP3A4) expressed from the corresponding human CYP cDNA using a baculovirus expression vector. The microsomes also incorporated supplemental cDNA-expressed human reductase and/or cytochrome b5, as these enzymes stimulate the activity of the CYPs, allowing for a reduction in the amount of enzyme required per reaction (Gentest Corp.). The assays monitored, via fluorescence detection, the formation of a fluorescent metabolite following incubation of the microsomes with a specific CYP substrate. […] Reactions (0.2 mL) were performed in 96-well microtitre plates at 37° C. in the presence of an NADPH regenerating system [NADP+, glucose-6-phosphate (G6P), glucose-6-phosphate dehydrogenase (G6PDH)] and MgCl2. […] All determinations were performed in duplicate. The reagent solutions used for all of the CYP subtype assays, except CYP2C19 and CYP3A4, were prepared by MBDI. For CYP2C19 and CYP3A4, complete reagent kits purchased from Gentest Corp. (CYP2C19/CEC: Cat. No. HTS-4000, Lot No. 1; CYP3A4/BFC: Cat. No. HTS-1000, Lot No. 1) were used to perform the assays.
# as §2, with “dilutions. The microtitre plates containing 0.1 mL/well of the latter mixture were pre-warmed to 37° C. in an incubator.” for “dilutions.”
# Data Analysis—The mean of the duplicate fluorescent signals in the presence and absence (vehicle control) of each compound was calculated and corrected for the background noise. Percent inhibition was calculated as the difference in the corrected fluorescent signals in the absence and presence of the compound, divided by the corrected fluorescent signal in the absence of compound, multiplied by 100%.
# CYP1A2 = CYP1A2 (Homo sapiens, UniProt P05177); test: CYP1A2 inhibition assay (Supersomes, fluorescent metabolite, substrate CEC); conditions: 0.0169 to […] tested, na = concentration-dependent inhibition not observed
# Text: as §1, §2, §3
# CYP2C8 = molecular target: T2, CYP2C8 (Homo sapiens, UniProt P10632); test: CYP2C8 inhibition assay (substrate DBF); conditions: 0.0169 to […] tested, na = concentration-dependent inhibition not observed
# T2 sequence (P10632 1-490): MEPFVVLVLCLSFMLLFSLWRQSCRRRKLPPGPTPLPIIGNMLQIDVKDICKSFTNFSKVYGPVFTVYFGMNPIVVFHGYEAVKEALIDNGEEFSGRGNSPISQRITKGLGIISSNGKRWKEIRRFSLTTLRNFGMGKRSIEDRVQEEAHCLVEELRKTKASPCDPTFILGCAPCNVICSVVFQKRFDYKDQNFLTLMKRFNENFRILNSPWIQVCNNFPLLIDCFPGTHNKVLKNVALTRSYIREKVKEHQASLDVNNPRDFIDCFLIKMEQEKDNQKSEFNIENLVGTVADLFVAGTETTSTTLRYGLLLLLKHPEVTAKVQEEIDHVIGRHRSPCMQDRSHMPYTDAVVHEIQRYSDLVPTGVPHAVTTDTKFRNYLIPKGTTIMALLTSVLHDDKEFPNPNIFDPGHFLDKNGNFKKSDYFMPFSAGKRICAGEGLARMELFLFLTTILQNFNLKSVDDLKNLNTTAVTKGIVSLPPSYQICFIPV
# Text: as §1, §2, §3
# CYP2E1 = molecular target: T3, CYP2E1 (Homo sapiens, UniProt P05181); test: CYP2E1 inhibition assay (substrate MFC); assay type: in vitro ADME; conditions: 0.0169 to […] tested, na = concentration-dependent inhibition not observed
# T3 construct: purchased Gentest Corp; host or cells: insect cells (baculovirus)
# Experimental: All determinations were performed in duplicate.
# Sequence of CYP3A4 (P08684 whole entry): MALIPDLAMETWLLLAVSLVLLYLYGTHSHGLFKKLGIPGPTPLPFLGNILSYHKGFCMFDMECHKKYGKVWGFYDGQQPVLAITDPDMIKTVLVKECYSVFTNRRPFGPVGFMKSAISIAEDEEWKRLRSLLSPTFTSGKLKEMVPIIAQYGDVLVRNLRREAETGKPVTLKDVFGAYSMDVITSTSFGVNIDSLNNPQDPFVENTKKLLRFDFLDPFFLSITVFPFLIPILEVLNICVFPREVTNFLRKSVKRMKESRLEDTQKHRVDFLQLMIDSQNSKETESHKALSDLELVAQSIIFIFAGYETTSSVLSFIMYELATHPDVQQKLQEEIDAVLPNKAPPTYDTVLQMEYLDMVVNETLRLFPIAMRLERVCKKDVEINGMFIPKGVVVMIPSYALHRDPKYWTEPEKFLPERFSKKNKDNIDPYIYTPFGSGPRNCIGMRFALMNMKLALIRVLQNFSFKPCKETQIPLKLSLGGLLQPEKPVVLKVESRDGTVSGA
# Sequence of CYP2D6 (P10635 whole entry): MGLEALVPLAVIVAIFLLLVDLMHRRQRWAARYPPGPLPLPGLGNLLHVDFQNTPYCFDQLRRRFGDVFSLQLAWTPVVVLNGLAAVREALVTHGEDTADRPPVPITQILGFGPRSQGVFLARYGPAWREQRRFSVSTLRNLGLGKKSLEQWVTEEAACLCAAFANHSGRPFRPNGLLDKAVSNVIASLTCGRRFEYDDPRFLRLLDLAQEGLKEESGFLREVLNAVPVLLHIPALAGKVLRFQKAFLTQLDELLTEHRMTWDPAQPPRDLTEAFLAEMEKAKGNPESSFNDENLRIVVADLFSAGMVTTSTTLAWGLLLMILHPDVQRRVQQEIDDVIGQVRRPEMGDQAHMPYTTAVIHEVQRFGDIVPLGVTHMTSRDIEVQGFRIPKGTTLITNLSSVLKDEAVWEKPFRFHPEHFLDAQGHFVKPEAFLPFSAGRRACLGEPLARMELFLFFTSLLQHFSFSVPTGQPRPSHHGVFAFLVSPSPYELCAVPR
# Sequence of CYP2C19 (P33261 whole entry): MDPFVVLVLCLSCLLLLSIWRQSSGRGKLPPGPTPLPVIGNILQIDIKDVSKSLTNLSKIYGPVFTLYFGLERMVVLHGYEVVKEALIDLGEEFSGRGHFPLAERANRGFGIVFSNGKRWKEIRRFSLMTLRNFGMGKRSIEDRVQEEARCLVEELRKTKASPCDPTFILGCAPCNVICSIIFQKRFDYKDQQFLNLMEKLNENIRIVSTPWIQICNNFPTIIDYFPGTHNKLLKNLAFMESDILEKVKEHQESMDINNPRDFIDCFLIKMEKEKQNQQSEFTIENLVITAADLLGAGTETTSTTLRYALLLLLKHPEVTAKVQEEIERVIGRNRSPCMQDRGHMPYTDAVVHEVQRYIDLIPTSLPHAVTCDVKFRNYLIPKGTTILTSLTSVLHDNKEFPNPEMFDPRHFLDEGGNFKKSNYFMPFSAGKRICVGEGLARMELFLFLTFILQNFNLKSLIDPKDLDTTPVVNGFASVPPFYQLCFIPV
# T3 sequence (P05181 whole entry): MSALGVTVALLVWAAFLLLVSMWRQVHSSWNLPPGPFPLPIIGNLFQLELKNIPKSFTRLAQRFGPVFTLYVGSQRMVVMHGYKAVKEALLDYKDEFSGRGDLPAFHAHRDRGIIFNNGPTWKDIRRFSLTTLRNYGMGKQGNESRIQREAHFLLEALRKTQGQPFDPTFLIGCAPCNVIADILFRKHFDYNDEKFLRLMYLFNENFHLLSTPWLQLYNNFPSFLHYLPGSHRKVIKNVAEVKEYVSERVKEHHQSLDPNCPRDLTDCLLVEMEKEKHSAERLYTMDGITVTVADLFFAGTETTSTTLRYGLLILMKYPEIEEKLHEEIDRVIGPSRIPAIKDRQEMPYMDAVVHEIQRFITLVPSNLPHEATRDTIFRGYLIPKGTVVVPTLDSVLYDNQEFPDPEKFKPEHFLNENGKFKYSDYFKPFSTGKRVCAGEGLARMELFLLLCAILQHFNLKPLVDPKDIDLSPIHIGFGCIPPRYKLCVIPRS
# Sequence of CYP1A2 (P05177 whole entry): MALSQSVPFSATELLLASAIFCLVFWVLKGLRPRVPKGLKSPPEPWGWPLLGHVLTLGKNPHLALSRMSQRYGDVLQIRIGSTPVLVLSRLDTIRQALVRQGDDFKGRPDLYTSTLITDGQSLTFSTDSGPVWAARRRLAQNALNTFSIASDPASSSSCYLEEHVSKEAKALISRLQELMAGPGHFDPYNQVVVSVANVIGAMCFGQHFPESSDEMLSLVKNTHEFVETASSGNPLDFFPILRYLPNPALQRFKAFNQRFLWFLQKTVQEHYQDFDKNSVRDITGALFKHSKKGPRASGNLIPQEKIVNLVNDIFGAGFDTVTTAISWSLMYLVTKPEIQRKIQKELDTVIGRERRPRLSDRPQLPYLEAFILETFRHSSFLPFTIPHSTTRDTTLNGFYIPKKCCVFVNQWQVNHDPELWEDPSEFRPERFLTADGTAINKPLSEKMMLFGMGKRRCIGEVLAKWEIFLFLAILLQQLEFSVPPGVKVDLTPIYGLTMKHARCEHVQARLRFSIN
smiles,measurement,setting,value
"Cc1ncc(COP(=O)(O)O)c(C=O)c1O [P5P, pyridoxal-5-phosphate]",IC50,"CYP3A4; read-out: Pyridoxal 5′-phosphate IC50, CYP3A4, substrate BQ, 0.0169 to […] tested",> 37 µM
same,IC50,"CYP3A4; read-out: Pyridoxal 5′-phosphate IC50 for CYP3A4, CYP3A4, substrate not given",≥ 37 µM
same,Pyridoxal 5′-phosphate IC50,CYP2D6,did not inhibit
same,IC50,CYP2C19,~33 µM
same,Pyridoxal 5′-phosphate IC50,CYP2B6,did not inhibit
same,Pyridoxal 5′-phosphate IC50,CYP1A2,did not inhibit
same,Pyridoxal 5′-phosphate IC50,CYP2C8,did not inhibit
same,Pyridoxal 5′-phosphate IC50,CYP2E1,did not inhibit
